Laboratory results from patent US7893041B2, “Oligosaccharide compositions and use thereof in the treatment of infection” (Children's Hospital Medical Center, priority 2003, dated 2011).

Tests used:
[1] = test system: Campylobacter jejuni; assay: Cohort of breastfed mother-infant pairs: milk oligosaccharide vs C. jejuni-associated diarrhea; format: in vivo, human; conditions: for Association of rates of C. jejuni diarrhea during breastfeeding with oligosaccharide as a percent of milk oligosaccharide: breastfed infants, 2′-FL P=0.004, LDFH-I P=0.047 (not persisting after controlling for 2′-FL)
From the text: (§1) A cohort of 316 mother-infant pairs was enrolled and monitored from birth to two years postpartum in San Pedro Martir, a transitional neighborhood of Mexico City. Enrollment was restricted to term, normal birthweight infants. This research was approved by institutional review boards in Mexico and Cincinnati. Written informed consent was obtained from mothers who participated. Infant illness and feeding history were collected by trained field workers who made weekly home visits. Milk samples were collected from mothers weekly in the first month, and monthly thereafter. Samples were collected in the morning by an experienced study nurse using an Egnell electric breast pump to obtain the complete content of one breast. Samples were transported on ice from the study household to the laboratory, where they were stored at −70° C. Infant stool samples were collected weekly with additional samples obtained whenever diarrhea occurred. Diarrhea samples were routinely tested for Campylobacter jejuni, diarrheagenic E. coli, Shigella, Salmonella, Aeromonas, and rotavirus, as detailed in previous publications (129, 136-138). […] Diarrhea episodes were defined throughout the study as three or more watery stools within a 24-hour period or loose-to-watery bowel movements that exceeded the child's usual daily stool frequency by two or more stools as determined by a study physician. […] Classification of disease severity was based on the standardized history of each diarrhea episode recorded by a study physician, and was blind to and independent of milk oligosaccharide analysis. Diarrhea was attributed to campylobacter or calicivirus if the pathogen was detected in a stool sample collected during or within seven days of an episode of diarrhea. […]
Milk samples were transported to Boston and analyzed as described previously(143). Milk oligosaccharides were isolated, perbenzoylated, and resolved by reversed-phase HPLC (C-8) with an acetonitrile/water gradient and detected at 229 nm. […]

[2] = test system: Campylobacter; assay: Ex vivo inhibition of Campylobacter colonization of human intestinal mucosa; conditions: FIG. 9B
Protocol: FIGS. 9A and 9B are a pair of graphs depicting the results of an study showing inhibition of Campylobacter colonization in BALB/c mice fed with 2 mg of milk fucosylated oligosaccharides given during challenge with 10^4 and 10^8 CFU of bacteria (left). Ex vivo assays of inhibition of human gut colonization of Campylobacter with 2′-fucosyllactose (2′-FL) and milk fucosylated oligosaccharides (OS).

[3] = test system: campylobacter adherence to intestinal epithelial cells; conditions: early studies (ref. 80); cited from earlier work
[4] = test system: V. cholerae; conditions: previous studies (ref. 86); cited from earlier work
[5] = test system: calicivirus; assay: Cohort of breastfed mother-infant pairs: milk oligosaccharide vs calicivirus-associated diarrhea; format: in vivo, human
From the text: as §1, with “thereafter.” for “thereafter. Samples were collected in the morning by an experienced study nurse using an Egnell electric breast pump to obtain the complete content of one breast. Samples were transported on ice from the study household to the laboratory, where they were stored at −70° C. Infant stool samples were collected weekly with additional samples obtained whenever diarrhea occurred. Diarrhea samples were routinely tested for Campylobacter jejuni, diarrheagenic E. coli, Shigella, Salmonella, Aeromonas, and rotavirus, as detailed in previous publications (129, 136-138).”
Milk samples were transported to Boston and analyzed as described previously(143). […]

[6] = test system: Campylobacter binding to FUT1-CHO cells; assay: Inhibition of Campylobacter binding to FUT1-transfected CHO cells; format: cell-based, Campylobacter jejuni; conditions: FIG. 7
From the text: α1,2-fucosyltransferase-transfected CHO cells (CHO-FUT1), α1,3/4-fucosyltransferase-transfected CHO cells (CHO-FUT3), and α1,3-fucosyltransferase-transfected CHO cells (CHO-FUT4), and parental CHO cells transfected with the vector pCDM7 lacking the α1,2 FUT gene (CHO-WT) can be used to test bacterial binding and bacterial/host cell agglutination. Parental CHO cells with the vectors are used as controls.
The binding of bacteria to CHO cells transfected with the human gene for α1,2-fucosyltransferase (FUT1), can be assessed by bacterial-cell association assay. […]
Ligands, such as α1,2-fucosyl ligands and homologs are tested for their ability to inhibit binding of campylobacter and V. cholerae strains to CHO-FUT1 cells. For molecules that is bind to H-2 ligands, including anti-H-2 monoclonal antibodies (anti-H-2 MAbs) and the lectins Ulex europaeus (UEA I) and Lotus tetragonolobus (Lotus), inhibition is measured on monolayers of CHO-FUT1 cells incubated in 8-well chamber slides for 1 h with each of the α1,2-fucosyl ligands before adding 100 μL of the bacterial suspension containing 1×10^8 bacteria/mL. […] In both assays, after a 3 h incubation at 37° C., wells are rinsed, lysed with 1% Triton X100, and CFU (colony forming units) of bacteria per well are determined. […]

**Q.** Which results are given for 2-Fucosyllactose [2′-FL]?
**A.** Association of rates of C. jejuni diarrhea during breastfeeding with oligosaccharide as a percent of milk oligosaccharide [1]: inversely associated; Campylobacter incidence in the intermediate and high groups compared to the low group ([1]; tertiles (n=31) of 2′-FL as percent of milk oligosaccharide: low <0.29, intermediate 0.29-0.36, high >0.37, FIG. 6A): significantly (P<0.01) less; Inhibition of C. jejuni binding/colonization in human intestinal mucosa ex vivo [2]: inhibits

**Q.** With `C[C@H](O)[C@@H](O)[C@@H](O)[C@H](O)C=O` [L-fucose] as the molecule, how does the “Inhibition of campylobacter adherence to intestinal epithelial cells” value [3] read?
**A.** inhibition

**Q.** What about the “Inhibition of hemagglutination produced by V. cholerae with human O erythrocytes” value [4] of the same molecule?
**A.** inhibited

**Q.** With Lacto-N-difucohexaose I [LDFH-I] as the molecule, how does the “Association of rates of C. jejuni diarrhea during breastfeeding with oligosaccharide as a percent of milk oligosaccharide” value [1] read?
**A.** directly associated

**Q.** What about the “Association of calicivirus diarrhea during breastfeeding with oligosaccharide as a percent of milk oligosaccharide” value ([5]; breastfed infants, P=0.012, dose-dependent) of the same molecule?
**A.** inverse association

**Q.** What about the “Calicivirus incidence in the high group compared to the low group” value ([5]; tertiles (n=31) of LDFH-I as percent of milk oligosaccharide: low <0.07, intermediate 0.07-0.11, high >0.12, FIG. 6B) of the same molecule?
**A.** significantly (P=0.02) less

B1: Ulex europaeus lectin: lectin that binds to H-2 ligands (protein, UniProt P22972 1-243, looked up)
Anti-H(O) lectin 1: SDDLSFKFKNFSQNGKDLSFQGDASVIETGVLQLNKVGNNLPDETGGIARYIAPIHIWNCNTGEVASFITSFSFFMETSANPKAATDGLTFFLAPPDSPLRRAGGYFGLFEDTKDNDSSYQTVAVEFDTIGSPVNFDDPGFPHIGIDVNRVKSINAERWNKRYGLNNVANVEIIYEASSKTLTASLTYPSDQTSISVTSIVDLKEILPEWVSVGFSGGTYIGRQATHEVLNWYFTSNLINTNS
**Q.** For B1, which “Inhibition of bacterial binding to α1,2-fucosyltransferase (FUT1)-transfected CHO cells” value [6] is on record?
**A.** specifically inhibited
